Where no end group is shown, it is not given here.
Experiments:
[1] = test system: S. aureus USA300 internalization by HaCaT cells; assay: S. aureus USA300 invasion (internalization) into HaCaT keratinocytes; type: cell-based, human; conditions: for relative invasion (intracellular USA300 count) in HaCaT at 20 µM: peptide 20 µM; for relative invasion (intracellular USA300 count) in HaCaT at 50 µM: peptide 50 µM; for decrease in uptake/invasion of S. aureus USA300 by HaCaT cells compared to untreated control: preincubation with L15 20 µM, L13 30 µM, geldanamycin 5 µM or α-Hsp90α antibody, MOI 30; for concentration from which a significant reduction of intracellular USA300 was observed: tested 0 to 50 µM in HaCaT
Experimental: The invasion protocol was adapted from our previous papers (Nguyen et al. [2015], Tribelli et al. [2020]). About 5 × 10^5 Keratinocytes were seeded in a 24 well plate (Greiner, Frickenhausen, Germany) to attain a monolayer of ∼10^6 cells/well. Staphylococcusaureus was grown overnight at 37°C, centrifuged and suspended in invasion medium (DMEM with 10% FBS for HaCaT and K-SFM for NTERT-1 cells). The adherent keratinocytes were […], or 5 µM geldanamycin (Sigma-Aldrich, Germany) or monoclonal antibodies specific against Hsp90α (α‐Hsp90α, Abcam) for 1 h. After 1 h, 100 µl of bacterial suspension was added to each well to attain a MOI (multiplicity of infection) of 30 and incubated with cells for 1.5 h. Subsequently, the extracellular bacteria were killed with treatment of 2.5 μg/ml lysostaphin (Sigma-Aldrich, Germany) for 1.5 h. The cells were then washed, lysed, mechanically detached by scraping, diluted, and enumerated on TSA (Tryptic Soy Agar) plates to quantify the intracellular bacteria.

[2] = target: T1, Hsp90α (Homo sapiens, UniProt P07900); type: binding; conditions: dot blot, 2 µg blotted on membrane, 20 µg recombinant Hsp90α at 4°C overnight, α-Hsp90α immunodetection
T1 construct: purchased Abcam
Experimental: (§1) Two µg of each peptide was blotted (dot blot) directly on PDV nitrocellulose membrane and blocked with ROTI®Block (Carl Roth, Germany). After washing, the membrane was then incubated with 20 μg of recombinant Hsp90α (Abcam)/Lpl1-his protein at 4°C overnight. In case of interaction studies with Hsp90α, α-Hsp90α (produced in mouse, Abcam) was used as the primary antibody and for interaction studies with Lpl1-his, Anti-6X His tag antibody (also produced in mouse, Sigma-Aldrich, Germany) was used. Alkaline phosphatase conjugated goat-α-mouse IgG (Sigma-Aldrich, Germany) served as the secondary antibody. Detection was done using BCIP®/NBT solution (Sigma, Germany). Lpl1-his was isolated and purified as described in our previous paper (Tribelli et al. [2020]).

[3] = test system: F-actin levels in N/TERT-1 cells; assay: F-actin measurement (ActinGreen 488 fluorescence) in N/TERT-1 cells; type: cell-based, human; conditions: L15 20 µM, L13 30 µM, geldanamycin 5 µM; 1.5 h; relative to control
Experimental: About 5 × 10^4 cells were seeded in black flat bottom 96 well cell culture microplate (Greiner, Germany) and incubated overnight. The cells were then incubated with peptides or geldanamycin for 1.5 h. After incubation, the cells were washed, permeabilised with 0.1% (v/v) Triton X-100 and stained with ActinGreen™ 488 ReadyProbes® (Thermo Fischer, Germany) for 30 min. After the staining, the cells were washed and measure for its fluorescence at Excitation/Emission: 495/518 nm (Luqman et al. [2020]).

[4] = target: T2, Lpl1 (Staphylococcus aureus, UniProt Q2FJK4); assay: Dot blot / immunoblot interaction with Lpl1-his; type: binding; conditions: 2 µg blotted, anti-6X His immunodetection
T2 construct: made in house
T2 sequence (Q2FJK4 23-257): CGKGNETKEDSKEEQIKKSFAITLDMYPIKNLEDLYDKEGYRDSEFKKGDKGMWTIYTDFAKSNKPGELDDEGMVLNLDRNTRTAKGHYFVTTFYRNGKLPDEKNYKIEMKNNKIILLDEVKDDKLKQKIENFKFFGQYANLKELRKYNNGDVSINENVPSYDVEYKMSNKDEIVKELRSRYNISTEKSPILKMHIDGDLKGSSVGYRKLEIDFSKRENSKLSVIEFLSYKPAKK
Experimental: as §1

[5] = test system: HaCaT cells; assay: MTT cytotoxicity in HaCaT cells; type: cell-based, human; conditions: for toxicity to HaCaT cells at tested concentration and exposure time: concentrations used in invasion studies (Fig. S1)
Experimental: (§2) MTT (3-(4,5-dimethylthiazol-2-yl)-2,5-diphenyl tetrazolium bromide) assay was employed to analyze the cytotoxicity of peptides and geldanamycin to the cells. 5 × 10^5 cells were seeded in a 96 flat bottom well plate and incubated for 2.5 or 24 h at 37°C with 5% CO2. The cells were then treated with increasing concentration (0 to 200 µM) of peptides or geldanamycin for 24 h. After the incubation, 10 μl of the MTT labelling reagent is added to each well to attain a final concentration 0.5 mg/ml, followed by 4 h incubation. Metabolically active cells convert the yellow tetrazolium salt to purple formazan crystals, which were solubilized using the solubilization solution (DMSO) and measured for absorbance at λmax/λref–570/690 nm (Saising et al. [2018]).

[6] = test system: N/TERT-1 cells; assay: Cytotoxicity in N/TERT-1 cells at tested concentration; type: cell-based, human; conditions: concentrations used in invasion studies (Fig. S1)
Experimental: as §2

[7] = test system: S. aureus USA300; assay: Galleria mellonella larvae infection model, S. aureus USA300; type: in vivo
Experimental: (§3) Galleria mellonella larvae, purchased from Feeders & more GmbH, Germany, were sorted based on weight and used within one week. Ten larvae per group with weight average of 500 mg/larvae were injected with bacteria and/or peptides on its last proleg using a BD insulin syringe. The dosage used for the experiment were 60 mg/kg for peptides, 5 mg/kg of geldanamycin and 20 mg/kg for vancomycin. Each larva was injected with 10 µl of L15 (last left proleg) 1 h before administration of 10^6 cfu S. aureus (last right proleg). The larvae were maintained at 37°C and observed for mortality every day over the course of 5 days.

[8] = test system: S. aureus Newman; assay: Galleria mellonella larvae infection model, S. aureus Newman; type: in vivo; conditions: peptides 60 mg/kg, vancomycin 20 mg/kg, injected 1 h before 10^6 cfu; 37°C
Experimental: as §3

[9] = test system: S. aureus USA300 infected PBMCs; assay: Cytokine release of S. aureus USA300 infected PBMCs (ELISA); type: cell-based, human; conditions: L15 20 µM, L13 30 µM, geldanamycin 5 µM; 20 h; n = 5; vs unstimulated infected PBMCs
[10] = test system: Staphylococcus aureus; assay: Bacterial growth kinetics; type: cell-based; conditions: OD578 every 1 h for 24 h, 37°C, TSB
Experimental: Staphylococcus aureus precultured in TSB overnight were inoculated to OD∼0.01 into a 48 well plate and L15 and L13 were added to study the effect of peptides on bacterial growth using Varioskan LUX Multimode Microplate Reader. With this instrument, a kinetic measurement of OD578 nm was obtained every 1 h for a total of 24 h, at 37°C with continuous shaking.

Sequence	relative invasion (intracellular USA300 count) in HaCaT at 20 µM ([1]; untreated control 1.0 ± 0.0)	relative invasion (intracellular USA300 count) in HaCaT at 40 µM ([1]; peptide 40 µM, untreated control 1.0 ± 0.0)	relative invasion (intracellular USA300 count) in HaCaT at 50 µM ([1]; untreated control 1.0 ± 0.0)	decrease in uptake/invasion of S. aureus USA300 by HaCaT cells compared to untreated control [1]	concentration from which a significant reduction of intracellular USA300 was observed [1] [µM]	Interaction with Hsp90α [2]	relative F-actin content in N/TERT-1 cells [3]	direct interaction with Lpl1 [4]	percentage of viable cells, HaCaT, 1 µM ([5]; MTT, 24 h, 1 µM) [%]	percentage of viable cells, HaCaT, 200 µM ([5]; MTT, 24 h, 200 µM) [%]	toxicity to HaCaT cells at tested concentration and exposure time [5]	toxicity to N/TERT-1 cells at tested concentration and exposure time [6]	larvae surviving on day 5, S. aureus USA300 ([7]; peptides 60 mg/kg injected 1 h before 10^6 cfu, 37°C, 10 larvae per group, three biological replicates) [%]	larvae surviving on day 5, S. aureus Newman [8] [%]	IL-6 production of infected PBMCs [9]	effect on growth of S. aureus [10]	reduction of lethality of S. aureus in the insect model ([7]; G. mellonella model)
GHYFVTTFY [L13]	0.67 ± 0.05	0.41 ± 0.03	0.73 ± 0.18	50–60%	≥ 20	Yes	0.81 ± 0.03	interact directly	103.05 ± 10.06	83.79 ± 11.13	neither inhibit the viability of host cells	neither inhibit the viability of host cells	23	46	significantly increased	did not detect any effect on growth	–
TAKGHYFVTTFYRNG [L15]	0.33 ± 0.24	–	0.40 ± 0.05	50–60%	≥ 20	Yes	0.9 ± 0.02	interact directly	–	–	neither inhibit the viability of host cells	neither inhibit the viability of host cells	–	36	significantly increased	did not detect any effect on growth	about 30%

Source: PMC10117725, “From an Hsp90 - binding protein to a peptide drug” (microLife, 2022)
